Assay results taken from patent US12398097B2, “WDR5-MYC inhibitors” (Vanderbilt University, priority 2019, dated 2025).

Target: WDR5 (Homo sapiens, UniProt P61964)
Assay: Competition-based fluorescence polarization anisotropy assay
Conditions: binding to WDR5; displacement of FITC-labeled small molecule probe (analogous to Example J2 or HCH-25) or peptide probe FITC-AHx-SEEEIDVVSV; pH 6.0; Ki converted from IC50
How it was run: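 Competition fluorescence polarization anisotropy binding to WDR5 using a FITC-labeled peptide probe or a fluorescently labeled small-molecule probe. Buffer: 200 mM phosphate, 300 mM NaCl, 0.5 mM TCEP, 0.1% Chaps, pH 6.0. Displacement data were converted to Ki.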

Ki [nM] | Structure (SMILES)
2540 | O=C(NCCN1CCOCC1)c1cc(C2CC2)cc(NS(=O)(=O)c2cc(Br)ccc2O)c1F [Example J143, 3-((5-Bromo-2-hydroxyphenyl)sulfonamido)-5-cyclopropyl-2-fluoro-N-(2-morpholinoethyl)benzamide]
6760 | O=C(NC1COC1)c1cc(C2CC2)cc(NS(=O)(=O)c2cc(Br)ccc2O)c1F [Example J144, 3-((5-Bromo-2-hydroxyphenyl)sulfonamido)-5-cyclopropyl-2-fluoro-N-(oxetan-3-yl)benzamide]
40 | CNC(=O)c1c(O)c(NS(=O)(=O)c2cc(Br)cc(Cl)c2O)cc(C2CC2)c1F [Example J146, 3-((5-Bromo-3-chloro-2-hydroxyphenyl)sulfonamido)-5-cyclopropyl-6-fluoro-2-hydroxy-N-methylbenzamide]
230 | COCCNC(=O)c1c(O)c(NS(=O)(=O)c2cc(Br)cc(Cl)c2O)cc(C2CC2)c1F [Example J147, 3-((5-Bromo-3-chloro-2-hydroxyphenyl)sulfonamido)-5-cyclopropyl-6-fluoro-2-hydroxy-N-(2-methoxyethyl)benzamide]
600 | O=C(NCCN1CCOCC1)c1c(O)c(NS(=O)(=O)c2cc(Br)cc(Cl)c2O)cc(C2CC2)c1F [Example J148, 3-((5-Bromo-3-chloro-2-hydroxyphenyl)sulfonamido)-5-cyclopropyl-6-fluoro-2-hydroxy-N-(2-morpholinoethyl)benzamide]
710 | O=C(NC1COC1)c1c(O)c(NS(=O)(=O)c2cc(Br)cc(Cl)c2O)cc(C2CC2)c1F [Example J149, 3-((5-Bromo-3-chloro-2-hydroxyphenyl)sulfonamido)-5-cyclopropyl-6-fluoro-2-hydroxy-N-(oxetan-3-yl)benzamide]
920 | CNC(=O)c1c(O)c(NS(=O)(=O)c2cc(Br)cc(F)c2O)cc(C2CC2)c1F [Example J150, 3-((5-Bromo-3-fluoro-2-hydroxyphenyl)sulfonamido)-5-cyclopropyl-6-fluoro-2-hydroxy-N-methylbenzamide]
210 | CNC(=O)c1cc(NS(=O)(=O)c2cc(Br)cc(Cl)c2O)cc(C2CC2)c1F [Example J151, 5-((5-Bromo-3-chloro-2-hydroxyphenyl)sulfonamido)-3-cyclopropyl-2-fluoro-N-methylbenzamide]
320 | COCCNC(=O)c1cc(NS(=O)(=O)c2cc(Br)cc(Cl)c2O)cc(C2CC2)c1F [Example J152, 5-((5-Bromo-3-chloro-2-hydroxyphenyl)sulfonamido)-3-cyclopropyl-2-fluoro-N-(2-methoxyethyl)benzamide]
440 | O=C(NCCN1CCOCC1)c1cc(NS(=O)(=O)c2cc(Br)cc(Cl)c2O)cc(C2CC2)c1F [Example J153, 5-((5-Bromo-3-chloro-2-hydroxyphenyl)sulfonamido)-3-cyclopropyl-2-fluoro-N-(2-morpholinoethyl)benzamide]
130 | O=C(Nc1nc[nH]n1)c1cc(NS(=O)(=O)c2cc(Br)cc(Cl)c2O)cc(C2CC2)c1F [Example J154, 5-((5-Bromo-3-chloro-2-hydroxyphenyl)sulfonamido)-3-cyclopropyl-2-fluoro-N-(1H-1,2,4-triazol-3-yl)benzamide]
330 | O=C(NC1COC1)c1cc(NS(=O)(=O)c2cc(Br)cc(Cl)c2O)cc(C2CC2)c1F [Example J155, 5-((5-Bromo-3-chloro-2-hydroxyphenyl)sulfonamido)-3-cyclopropyl-2-fluoro-N-(oxetan-3-yl)benzamide]
210 | CNC(=O)c1cc(C2CC2)cc(NS(=O)(=O)c2cc(Br)cc(Cl)c2O)c1F [Example J156, 3-((5-Bromo-3-chloro-2-hydroxyphenyl)sulfonamido)-5-cyclopropyl-2-fluoro-N-methylbenzamide]
210 | COCCNC(=O)c1cc(C2CC2)cc(NS(=O)(=O)c2cc(Br)cc(Cl)c2O)c1F [Example J157, 3-((5-Bromo-3-chloro-2-hydroxyphenyl)sulfonamido)-5-cyclopropyl-2-fluoro-N-(2-methoxyethyl)benzamide]
320 | O=C(NCCN1CCOCC1)c1cc(C2CC2)cc(NS(=O)(=O)c2cc(Br)cc(Cl)c2O)c1F [Example J158, 3-((5-Bromo-3-chloro-2-hydroxyphenyl)sulfonamido)-5-cyclopropyl-2-fluoro-N-(2-morpholinoethyl)benzamide]
610 | O=C(NC1COC1)c1cc(C2CC2)cc(NS(=O)(=O)c2cc(Br)cc(Cl)c2O)c1F [Example J159, 3-((5-Bromo-3-chloro-2-hydroxyphenyl)sulfonamido)-5-cyclopropyl-2-fluoro-N-(oxetan-3-yl)benzamide]
60 | O=C(O)c1cc(OC(F)(F)F)cc(NS(=O)(=O)c2cc(Br)ccc2O)c1O [Example J160, 3-((5-Bromo-2-hydroxyphenyl)sulfonamido)-2-hydroxy-5-(trifluoromethoxy)benzoic acid]

Ki [nM] | Structure (SMILES)
350 | O=C(O)c1cc(OC(F)(F)F)cc(NS(=O)(=O)c2cc(Br)cc3cccnc23)c1O [Example J161, 3-((6-Bromoquinoline)-8-sulfonamido)-2-hydroxy-5-(trifluoromethoxy)benzoic acid]
410 | CNC(=O)c1cc(OC(F)(F)F)cc(NS(=O)(=O)c2cc(Br)ccc2O)c1O [Example J162, 3-((5-Bromo-2-hydroxyphenyl)sulfonamido)-2-hydroxy-N-methyl-5-(trifluoromethoxy)benzamide]
570 | COCCNC(=O)c1cc(OC(F)(F)F)cc(NS(=O)(=O)c2cc(Br)ccc2O)c1O [Example J163, 3-((5-Bromo-2-hydroxyphenyl)sulfonamido)-2-hydroxy-N-(2-methoxyethyl)-5-(trifluoromethoxy)benzamide]
1440 | O=C(NCCN1CCOCC1)c1cc(OC(F)(F)F)cc(NS(=O)(=O)c2cc(Br)ccc2O)c1O [Example J164, 3-((5-Bromo-2-hydroxyphenyl)sulfonamido)-2-hydroxy-N-(2-morpholinoethyl)-(trifluoromethoxy)benzamide]
420 | O=C(NCC1CCCO1)c1cc(OC(F)(F)F)cc(NS(=O)(=O)c2cc(Br)ccc2O)c1O (stereo not drawn) [Example J165, 3-((5-Bromo-2-hydroxyphenyl)sulfonamido)-2-hydroxy-N-((tetrahydrofuran-2-yl)methyl)-5-(trifluoromethoxy)benzamide]
680 | O=C(NCC1CCOC1)c1cc(OC(F)(F)F)cc(NS(=O)(=O)c2cc(Br)ccc2O)c1O (stereo not drawn) [Example J166, 3-((5-Bromo-2-hydroxyphenyl)sulfonamido)-2-hydroxy-N-((tetrahydrofuran-3-yl)methyl)-5-(trifluoromethoxy)benzamide]
360 | O=C(NC1CCOC1)c1cc(OC(F)(F)F)cc(NS(=O)(=O)c2cc(Br)ccc2O)c1O (stereo not drawn) [Example J167, 3-((5-Bromo-2-hydroxyphenyl)sulfonamido)-2-hydroxy-N-(tetrahydrofuran-3-yl)-5-(trifluoromethoxy)benzamide]
460 | O=C(N[C@H]1CCOC1)c1cc(OC(F)(F)F)cc(NS(=O)(=O)c2cc(Br)ccc2O)c1O [Example J168, (S)-3-((5-Bromo-2-hydroxyphenyl)sulfonamido)-2-hydroxy-N-(tetrahydrofuran-3-yl)-5-(trifluoromethoxy)benzamide]
1710 | O=C(c1cc(OC(F)(F)F)cc(NS(=O)(=O)c2cc(Br)ccc2O)c1O)N1CCC[C@H]1CO [Example J169, (S)-5-Bromo-2-hydroxy-N-(2-hydroxy-3-(2-(hydroxymethyl)pyrrolidine-1-carbonyl)-5-(trifluoromethoxy)phenyl)benzenesulfonamide]
2840 | O=C(c1cc(OC(F)(F)F)cc(NS(=O)(=O)c2cc(Br)ccc2O)c1O)N1CCC[C@@H]1CO [Example J170, (R)-5-Bromo-2-hydroxy-N-(2-hydroxy-3-(2-(hydroxymethyl)pyrrolidine-1-carbonyl)-5-(trifluoromethoxy)phenyl)benzenesulfonamide]
1040 | COC[C@@H]1CCCN1C(=O)c1cc(OC(F)(F)F)cc(NS(=O)(=O)c2cc(Br)ccc2O)c1O [Example J171, (S)-5-Bromo-2-hydroxy-N-(2-hydroxy-3-(2-(methoxymethyl)pyrrolidine-1-carbonyl)-5-(trifluoromethoxy)phenyl)benzenesulfonamide]
680 | COC[C@H]1CCCN1C(=O)c1cc(OC(F)(F)F)cc(NS(=O)(=O)c2cc(Br)ccc2O)c1O [Example J172, (R)-5-Bromo-2-hydroxy-N-(2-hydroxy-3-(2-(methoxymethyl)pyrrolidine-1-carbonyl)-5-(trifluoromethoxy)phenyl)benzenesulfonamide]
1560 | O=C(c1cc(OC(F)(F)F)cc(NS(=O)(=O)c2cc(Br)ccc2O)c1O)N1CC[C@@H](O)C1 [Example J173, (R)-5-Bromo-2-hydroxy-N-(2-hydroxy-3-(3-hydroxypyrrolidine-1-carbonyl)-5-(trifluoromethoxy)phenyl)benzenesulfonamide]
4690 | COC1CCN(C(=O)c2cc(OC(F)(F)F)cc(NS(=O)(=O)c3cc(Br)ccc3O)c2O)C1 (stereo not drawn) [Example J174, 5-Bromo-2-hydroxy-N-(2-hydroxy-3-(3-methoxypyrrolidine-1-carbonyl)-5-(trifluoromethoxy)phenyl)benzenesulfonamide]
810 | CNC(=O)c1cc(OC(F)(F)F)cc(NS(=O)(=O)c2cc(Cl)ccc2O)c1O [Example J175, 3-((5-Chloro-2-hydroxyphenyl)sulfonamido)-2-hydroxy-N-methyl-5-(trifluoromethoxy)benzamide]
7010 | COC[C@@H]1CCCN1C(=O)c1cc(OC(F)(F)F)cc(NS(=O)(=O)c2cc(Cl)ccc2O)c1O [Example J176, (S)-5-Chloro-2-hydroxy-N-(2-hydroxy-3-(2-(methoxymethyl)pyrrolidine-1-carbonyl)-5-(trifluoromethoxy)phenyl)benzenesulfonamide]
